Results as given in patent publication US5169841A, “Renin inhibitors” (Hoechst Aktiengesellschaft, priority 1987, dated 1992).

What follows are compounds tested against T1, human plasma renin (Homo sapiens, UniProt P00797) (assay: Inhibition of angiotensin I formation in human plasma (Renin-Maia radioimmunoassay)). Conditions: 37° C., 1 hour, % residual plasma renin activity by angiotensin I RIA.
T1 construct: from tissue; host or cells: human EDTA plasma from volunteer subjects
T1 sequence (P00797 67-406): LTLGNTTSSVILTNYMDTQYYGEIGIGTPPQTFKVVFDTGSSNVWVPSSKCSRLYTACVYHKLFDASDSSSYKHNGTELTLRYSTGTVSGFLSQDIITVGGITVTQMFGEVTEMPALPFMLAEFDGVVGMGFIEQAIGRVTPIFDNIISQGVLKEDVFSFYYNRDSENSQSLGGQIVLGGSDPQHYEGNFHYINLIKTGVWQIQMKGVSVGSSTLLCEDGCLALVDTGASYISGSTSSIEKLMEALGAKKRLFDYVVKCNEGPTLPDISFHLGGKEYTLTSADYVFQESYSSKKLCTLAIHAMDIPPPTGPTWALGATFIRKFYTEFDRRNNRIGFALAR
Assay type: biochemical
Description: The activity of renin inhibitors can be checked by in vitro tests. These entail the decrease in the formation of angiotensin I being measured in various systems (human plasma, purified human renin).
For example human plasma which contains both renin and angiotensinogen is incubated at 37° C. with the compound to be tested. During this, angiotensin I is liberated from angiotensinogen under the action of renin and can subsequently be measured using a commercially available radioimmunoassay. This liberation of angiotensin is inhibited by renin inhibitors.
The blood is obtained from volunteer subjects (about 0.5 litre per person; Bluko sampler from ASID Bonz and Sohn, Unterschleissheim) and is collected in partially evacuated bottles while cooling in ice. Coagulation is prevented by addition of EDTA (final concentration 10 mM). After centrifugation, (HS 4 Rotor (Sorvall), 3500 rpm, 0°-4° C., 15 min; repeat if necessary), the plasma is carefully removed with a pipette and frozen in suitable portions at -30° C. Only plasma with sufficiently high renin activity are used for the test. Plasma with low renin activity are activated by cold treatment (-4° C., 3 days (prorenin→renin).
Angiotensin I is determined using the Renin-Maia® Kit (Serono Diagnostics S. A., Coinsins, Switzerland). The plasma is incubated in accordance with the instructions given therein:
1000 μl of plasma (defrozen at 0-4° C.)
100 μl of phosphate buffer (ph 7.4)
10 μl of 0.1% Genapol PFIC
12 μl of DMSO or test product
The test products are generally dissolved 10^-2 M in 100% dimethylsulfoxide (DMSO) and diluted appropriately with DMSO; the incubation mixture contains not more than 1% DMSO.
The mixtures are mixed up in ice and placed in a water bath (37° C.) for 1 hour for the incubation. 6 samples in total (each of 100 μl) are taken from an additional mixture without inhibitor and without further incubation for the determination of the initial angiotensin I content of the plasma used.
The concentrations of the test products are selected such that the 10-90% range of enzyme inhibition is approximately covered (at least five concentrations). At the end of the incubation time, three 100 μl samples from each mixture are frozen in precooled Eppendorf tubes on dry ice and stored at about -25° C. for the determination of angiotensin I (means from three individual samples).
The instructions for use of the RIA Kit (Rennin-Maia® Kit, Serono Diagnostics S. A., Coinsins, Switzerland) are followed exactly.
The calibration plot embraces the range from 0.2 to 25.0 ng of angiotensin I per ml. The basic angiotensin I content of the plasma is subtracted from all the measured values. The plasma renin activity (PRA) is reported as ng of Ang I/ml x hour. PRA values in the presence of the test substances are related to a mixture without inhibitor (=100%) and reported as % residual activity. The IC50 value is read off from the plot of % residual activity against the concentration (M) of the test product (logarithmic scale).

For CCCC[C@H](NC(=O)[C@H](Cc1ccccc1)NC(=O)CC(C)C)C(=O)NC(CC1CCCCC1)B1OC(C)(C)C(C)(C)O1 (stereo partly drawn) [Example 2, Iva-Phe-Nle-[cyclohexylmethyl,(4,4,5,5-tetramethyl-1,3,2-dioxaborolane-2-yl)]methylamide], which IC50 is on record?
The IC50 was 1000 nM.

For CCC[C@H](NC(=O)[C@H](Cc1ccccc1)NC(=O)CC(C)C)C(=O)NC(CC1CCC(C)CC1)B1OC(C)(C)C(C)(C)O1 (stereo partly drawn) [Example 15, Iva-Phe-Nva-[(4-methylcyclohexyl)methyl,(4,4,5,5-tetramethyl-1,3,2-dioxaborolane-2-yl)]methylamide], which IC50 is on record?
The IC50 was 2800 nM.

With CCC[C@H](NC(=O)C(Cc1cccc2ccccc12)CS(=O)(=O)C(C)(C)C)C(=O)NC(CC1CCCC1)B1OC(C)(C)C(C)(C)O1 (some centres unmarked) [Example 50] as the compound, how does the IC50 read?
The IC50 was 1500 nM.

With CC(C)CC(=O)N[C@@H](Cc1ccccc1)C(=O)N[C@@H](Cc1c[nH]cn1)C(=O)NC(CC1CCCCCC1)B1OC(C)(C)C(C)(C)O1 (stereo partly drawn) [Example 19, Iva-Phe-His-[cycloheptylmethyl,(4,4,5,5-tetramethyl-1,3,2-dioxaborolane-2-yl)]methylamide] as the compound, how does the IC50 read?
The IC50 was 8000 nM.

With CC(C)CC(=O)N[C@@H](Cc1ccccc1)C(=O)N[C@@H](Cc1c[nH]cn1)C(=O)NC(CC1CCCCC1)B1OC(C)(C)C(C)(C)O1 (stereo partly drawn) [Example 3, Iva-Phe-His-[cyclohexylmethyl,(4,4,5,5-tetramethyl-1,3,2-dioxaborolane-2-yl)]methylamide] as the compound, how does the IC50 read?
The IC50 was 2000 nM.

With CCC[C@H](NC(=O)C(Cc1cccc2ccccc12)CS(=O)(=O)C(C)(C)C)C(=O)NC(CC(C)C)B1OC(C)(C)C(C)(C)O1 (some centres unmarked) [Example 42, [3-t-Butylsulfonyl,2-(1-naphthylmethyl)]propionyl-Nva-[3-methyl,1-(4,4,5,5-tetramethyl-1,3,2-dioxaborolane-2-yl)]butylamide] as the compound, how does the IC50 read?
Its IC50 is 950 nM.

CC(C)CC(=O)N[C@@H](Cc1ccccc1)C(=O)N[C@@H](Cc1cccs1)C(=O)NC(CC1CCCCC1)B1OC(C)(C)C(C)(C)O1 (stereo partly drawn) [Example 7, Iva-Phe-Thi-[cyclohexylmethyl,(4,4,5,5-tetramethyl-1,3,2-dioxaborolane-2-yl)]methylamide] was tested. Which IC50 did it give?
The IC50 was 670 nM.

For CCC[C@H](NC(=O)C(Cc1ccccc1)CS(=O)(=O)C(C)(C)C)C(=O)NC(CC1CCCC1)B1OC(C)(C)C(C)(C)O1 (some centres unmarked) [Example 44, (2-Benzyl,3-t-butylsulfonyl)propionyl-Nva-[cyclopentylmethyl,(4,4,5,5-tetramethyl-1,3,2-dioxaborolane-2-yl)]-methylamide], which IC50 is on record?
The IC50 was 2400 nM.

With CC(C)CC(=O)N[C@@H](Cc1ccccc1)C(=O)N[C@@H](Cc1c[nH]cn1)C(=O)NC(CC1CCCCCCC1)B1OC(C)(C)C(C)(C)O1 (stereo partly drawn) [Example 18, Iva-Phe-His-[cycloctylmethyl,(4,4,5,5-tetramethyl-1,3,2-dioxaborolane-2-yl)]methylamide] as the compound, how does the IC50 read?
The IC50 was 9000 nM.

For CC1(C)OB(C(CC2CCCCC2)NC(=O)[C@H](Cc2cccs2)NC(=O)C(Cc2cccs2)CS(=O)(=O)C(C)(C)C)OC1(C)C (some centres unmarked) [Example 43, [3-t-Butylsulfonyl,2-(2-thienylmethyl)]propionyl-Thi-[cyclohexylmethyl,(4,4,5,5-tetramethyl-1,3,2-dioxaborolane-2-yl)]methylamide], which IC50 is on record?
The IC50 was 550 nM.

Which IC50 does the source give for CCC[C@H](NC(=O)[C@H](Cc1ccccc1)NC(=O)CC(C)C)C(=O)NC(CC1CCCCCC1)B1OC(C)(C)C(C)(C)O1 (some centres unmarked) [Example 16] here?
The IC50 was 3000 nM.

CCC[C@H](NC(=O)C(Cc1cccc2ccccc12)CS(=O)(=O)C(C)(C)C)C(=O)NC(CC(CC)CC)B1OC(C)(C)C(C)(C)O1 (some centres unmarked) [Example 51, [3-t-Butylsulfonyl,2-(1-naphthylmethyl)]propionyl-Nva-[3-ethyl,1-(4,4,5,5-tetramethyl-1,3,2-dioxaborolane-2-yl)]-pentylamide] was tested. Which IC50 did it give?
The IC50 was 1800 nM.

For CC(C)CC(=O)N[C@@H](Cc1cccs1)C(=O)N[C@@H](Cc1c[nH]cn1)C(=O)NC(CC1CCCCC1)B1OC(C)(C)C(C)(C)O1 (stereo partly drawn) [Example 4, Iva-Thi-His-[cyclohexylmethyl,(4,4,5,5-tetramethyl-1,3,2-dioxaborolane-2-yl)]methylamide], which IC50 is on record?
The IC50 was 450 nM.

With CC(C)[C@H](NC(=O)C(Cc1ccccc1)CS(=O)(=O)C(C)(C)C)C(=O)NC(CC1CCCCC1)B1OC(C)(C)C(C)(C)O1 (some centres unmarked) [Example 39, (2-Benzyl,3-t-butylsulfonyl)propionyl-Val-[cyclohexylmethyl,(4,4,5,5-tetramethyl-1,3,2-dioxaborolane-2yl)]-methylamide] as the compound, how does the IC50 read?
The IC50 was 2100 nM.

CCC[C@H](NC(=O)[C@H](Cc1ccccc1)NC(=O)CC(C)C)C(=O)NC(CC1CCCCC1)B1OC(C)(C)C(C)(C)O1 (stereo partly drawn) [Example 1, Iva-Phe-Nva-[cyclohexylmethyl,(4,4,5,5-tetramethyl-1,3,2-dioxaborolane-2-yl)]methylamide] was tested. Which IC50 did it give?
The IC50 was 420 nM.

With CCC[C@H](NC(=O)C(Cc1ccccc1)CS(=O)(=O)C(C)(C)C)C(=O)NC(CC(CC)CC)B1OC(C)(C)C(C)(C)O1 (some centres unmarked) [Example 52, (2-Benzyl,3-t-butylsulfonyl)propionyl-Nvu-[3-ethyl,1-(4,4,5,5-tetramethyl-1,3,2-dioxaborolane-2-yl)]pentylamide] as the compound, how does the IC50 read?
The IC50 was 2800 nM.

CCC[C@H](NC(=O)C(Cc1cccs1)CS(=O)(=O)C(C)(C)C)C(=O)NC(CC1CCCCCC1)B1OC(C)(C)C(C)(C)O1 (some centres unmarked) [Example 41, [3-t-Butylsulfonyl,2-(2-thienylmethyl)]propionyl-Nva-[cycloheptylmethyl,(4,4,5,5-tetramethyl-1,3,2-dioxaborolane-2-yl)]methylamide] was tested. Which IC50 did it give?
Its IC50 is 1500 nM.

With CC1(C)OB(C(CC2CCCCC2)NC(=O)[C@H](CC(N)=O)NC(=O)C(Cc2cccs2)CS(=O)(=O)C(C)(C)C)OC1(C)C (some centres unmarked) [Example 54, (3-t-Butylsulfonyl,2-(2-thienylmethyl)]propionyl-Asn-[cyclohexylmethyl,(4,4,5,5-tetramethyl-1,3,2-dioxaborolane-2-yl)]methylamide] as the compound, how does the IC50 read?
Its IC50 is 900 nM.

Which IC50 does the source give for CC1(C)OB(C(CC2CCCCCC2)NC(=O)[C@H](Cc2cccs2)NC(=O)C(Cc2cccs2)CS(=O)(=O)C(C)(C)C)OC1(C)C (some centres unmarked) [Example 40, [3-t-Butylsulfonyl,2-(2-thienylmethyl)]propionyl-thi[cycloheptylmethyl,(4,4,5,5-tetramethyl-1,3,2-dioxaborolane-2-yl)]methylamide] here?
The IC50 was 3600 nM.

How did the IC50 turn out when CCC[C@H](NC(=O)C(Cc1cccs1)CS(=O)(=O)C(C)(C)C)C(=O)NC(CC1CCCCC1)B1OC(C)(C)C(C)(C)O1 (some centres unmarked) [Example 35, [3-t-Butylsulfonyl,2-(2-thienylmethyl)]propionyl-Nva-[cyclohexylmethyl,(4,4,5,5-tetramethyl-1,3,2-dioxaborolane-2-yl)]methylamide] was run?
The IC50 was 280 nM.

How did the IC50 turn out when CCC[C@H](NC(=O)C(Cc1ccccc1)CS(=O)(=O)C(C)(C)C)C(=O)NC(CC1CCCCC1)B1OC(C)(C)C(C)(C)O1 (some centres unmarked) [Example 36, (2-Benzyl,3-t-butylsulfonyl)propionyl-Nva-[cyclohexylmethyl,(4,4,5,5-tetramethyl-1,3,2-dioxaborolane-2-yl)]methylamide] was run?
Its IC50 is 620 nM.

How did the IC50 turn out when CCC[C@H](NC(=O)[C@H](Cc1ccccc1)NC(=O)CC(C)C)C(=O)NC(CC1CCCCC1)B1OC2CC3CC(C3(C)C)C2(C)O1 (single isomer, unassigned) [Example 13, Iva-Phe-Nva-[cyclohexylmethyl, (-)-pinanedioxyboryl]-methylamide] was run?
The IC50 was 2400 nM.

Which IC50 does the source give for CCC[C@H](NC(=O)[C@H](Cc1ccccc1)NC(=O)CC(C)C)C(=O)NC(CC1CCCCC1)B(O)O (stereo partly drawn) [Example 5, Iva-Phe-Nva-(cyclohexylmethyl,dihydroxyboryl)methylamide] here?
Its IC50 is 550 nM.
